Each structure is given as a SMILES string.

Broadly, the IC50 is the concentration that inhibits the measured activity by half.

The target in this assay is T1, AXL kinase (Homo sapiens, UniProt P30530).
T1 construct: purchased Invitrogen PV4803
T1 sequence (P30530 26-894): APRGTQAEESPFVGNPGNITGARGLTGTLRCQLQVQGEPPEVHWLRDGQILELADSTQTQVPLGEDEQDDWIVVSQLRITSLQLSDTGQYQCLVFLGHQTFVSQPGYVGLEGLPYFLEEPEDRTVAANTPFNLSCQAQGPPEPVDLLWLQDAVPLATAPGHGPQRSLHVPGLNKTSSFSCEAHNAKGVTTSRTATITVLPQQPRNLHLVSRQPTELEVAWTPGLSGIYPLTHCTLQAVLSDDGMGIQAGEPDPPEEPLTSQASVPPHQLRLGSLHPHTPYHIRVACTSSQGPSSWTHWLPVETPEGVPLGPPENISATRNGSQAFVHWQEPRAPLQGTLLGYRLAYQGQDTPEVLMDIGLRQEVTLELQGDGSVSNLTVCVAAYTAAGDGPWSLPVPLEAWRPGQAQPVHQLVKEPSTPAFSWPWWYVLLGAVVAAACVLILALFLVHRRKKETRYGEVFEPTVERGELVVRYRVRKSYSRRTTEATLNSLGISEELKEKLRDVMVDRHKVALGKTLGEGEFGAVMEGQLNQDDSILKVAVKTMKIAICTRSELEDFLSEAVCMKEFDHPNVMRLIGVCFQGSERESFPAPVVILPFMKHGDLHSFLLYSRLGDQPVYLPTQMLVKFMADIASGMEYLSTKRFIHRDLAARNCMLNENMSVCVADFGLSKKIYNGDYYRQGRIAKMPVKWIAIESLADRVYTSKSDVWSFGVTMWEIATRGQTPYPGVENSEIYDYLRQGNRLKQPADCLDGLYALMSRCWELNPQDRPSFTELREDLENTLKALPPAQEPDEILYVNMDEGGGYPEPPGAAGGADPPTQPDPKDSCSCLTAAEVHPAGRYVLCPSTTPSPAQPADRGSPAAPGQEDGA
Briefly: IC50 test on AXL kinase (Z′-LYTE FRET kinase activity detection). The format is biochemical. Conditions: Z′-LYTE FRET peptide assay, 1 h reaction. From the text: Kinase activity detection: The activity of compounds on kinases was detected by a secondary reaction which used the Z′-LYTE™ technique (a detection using fluorescence, enzyme coupling, and based on differences in susceptibility of phosphorylated and non-phosphorylated polypeptides to proteolytic cleavage), followed the fluorescence resonance energy transfer (FRET) principle, and used Z′-LYTE™ FRET peptide substrates (Invitrogen, Z′-LYTE™ KINASE ASSAY KIT—TYR 2 PEPTIDE, PV3191). AXL kinase (invitrogen, PV4803) was diluted stepwise, FRET peptide was then added, followed by ATP, then by compounds at different concentrations, reacted for 1 h, site-specific proteases were then added to recognize and cleave non-phosphorylated FRET peptides, reacted for 1 h, and […] at 445 nm and 520 nm were detected using excitation wavelength of 400 nm.
Take `Cc1ccc2c(c1)c(=O)c(C(=O)Nc1ccc(Oc3ncnc4[nH]cc(-c5ccccc5)c34)c(F)c1)c(C)n2-c1ccccc1` [GDL5000083, N-(3-fluoro-4-((5-phenyl-7H-pyrrolo[2,3-d]pyrimidine-4-yl)oxy)phenyl)-2,6-dimethyl-4-oxo-1-phenyl-1,4-hydroquinoline-3-carboxamide]: the 50% inhibitory concentration (IC50) stood at 0.618 µM. In the case of `COc1cc2ncnc(Oc3ccc(NC(=O)c4c5n(c6cc(N7CCN(Cc8oc(=O)oc8C)CC7)c(F)cc6c4=O)C(C)S5)cc3F)c2cc1OC` (stereo not shown) [GDL5000082, N-(4-((6,7-dimethoxyquinazolin-4-yl)oxy)-3-fluorophenyl)-6-fluoro-1-methyl-7-(4-((5-methyl-2-oxo-1,3-dioxol-4-yl)methyl)piperazin-1-yl)-4-oxo-1,4-dihydro-[1,3]thiazeto[3,2-a]quinoline-3-carboxamide], the IC50 amounted to 0.72 µM. To `CCc1ccc2c(c1)c(=O)c(C(=O)Nc1ccc(Oc3ccnc(C(N)=O)c3)c(F)c1)c(C)n2C` [GDL5000045, N-(4-(2-carbamoylpyridin-4-yloxy)-3-fluorophenyl)-6-ethyl-1,2-dimethyl-4-oxo-1,4-dihydroquinoline-3-carboxamide] belongs 4.38 µM; to `C=C(C)c1ccc2c(c1)c(=O)c(C(=O)Nc1ccc(Oc3ncnc4[nH]cc(-c5ccccc5)c34)c(F)c1)c(C)n2C` [TL50167, N-(3-fluoro-4-(5-phenyl-7H-pyrrolo[2,3-d]pyrimidin-4-yloxy)phenyl)-1,2-dimethyl-4-oxo-6-(prop-1-en-2-yl)-1,4-dihydroquinoline-3-carboxamide], 0.324 µM. To `CCc1ccc2c(c1)c(=O)c(C(=O)Nc1ccc(Oc3ccnc(NCc4ccccc4)c3)c(F)c1)c(C)n2C` belongs greater than 10 µM; to `CCN1CCN(c2cc3c(cc2F)c(=O)c(C(=O)Nc2ccc(Oc4ncnc5cc(OC)c(OC)cc45)c(F)c2)cn3C2CC2)CC1` [GDL5000093, 1-cyclopropyl-N-(4-(6,7-dimethoxyquinazolin-4-yloxy)-3-fluorophenyl)-7-(4-ethylpiperazin-1-yl)-6-fluoro-4-oxo-1,4-dihydroquinoline-3-carboxamide], 0.277 µM. To `Cc1c(C(=O)Nc2ccc(Oc3ccnc4[nH]cc(-c5ccccc5)c34)c(F)c2)c(=O)c2cc(Cl)ccc2n1C` [TL50128, 6-chloro-N-(3-fluoro-4-((3-phenyl-1H-pyrrolo[2,3-b]pyridin-4-yl)oxy)phenyl)-1,2-dimethyl-4-oxo-1,4-dihydroquinoline-3-carboxamide] belongs 0.211 µM; to `CCc1ccc2c(c1)c(=O)c(C(=O)Nc1ccc(Oc3ncnc4[nH]cc(-c5ccccc5)c34)cc1)c(C)n2C` [TL4830014, 6-ethyl-1,2-dimethyl-4-oxo-N-(4-((5-phenyl-7H-pyrrolo[2,3-d]pyrimidin-4-yl)oxy)phenyl)-1,4-dihydroquinoline-3-carboxamide], 0.105 µM. In turn, `Cc1ccc2[nH]c(C)c(C(=O)Nc3ccc(Oc4ncnc5[nH]cc(-c6ccccc6)c45)c(F)c3)c(=O)c2c1` [TL4800025, N-(3-fluoro-4-((5-phenyl-7H-pyrrolo[2,3-d]pyrimidin-4-yl)oxy)phenyl)-2,6-dimethyl-4-oxo-1,4-dihydroquinoline-3-carboxamide] yielded an IC50 of 0.557 µM. To `COc1cc2ncnc(Oc3ccc(NC(=O)c4cn(-c5ccc(F)cc5F)c5nc(N6CCC(N)C6)c(F)cc5c4=O)cc3F)c2cc1OC` (stereo not shown) [GDL5000101, 7-(3-aminopyrrolidin-1-yl)-1-(2,4-difluorophenyl)-N-(4-(6,7-dimethoxyquinazolin-4-yloxy)-3-fluorophenyl)-6-fluoro-4-oxo-1,4-dihydro-1,8-naphthyridine-3-carboxamide] belongs 0.081 µM; to `Cc1c(C(=O)Nc2ccc(Oc3ncnc4[nH]cc(-c5ccccc5)c34)c(F)c2)c(=O)c2cc(C3CC3)ccc2n1C` [TL50148, 6-cyclopropyl-N-(3-fluoro-4-((5-phenyl-7H-pyrrolo[2,3-d]pyrimidin-4-yl)oxy)phenyl)-1,2-dimethyl-4-oxo-1,4-dihydroquinoline-3-carboxamide], 0.227 µM; to `Cc1ccc2c(c1)c(=O)c(C(=O)Nc1ccc(Oc3ncnc4[nH]cc(-c5ccccc5)c34)c(F)c1)c(-c1ccccc1)n2C` [TL4800144, N-(3-fluoro-4-(5-phenyl-7H-pyrrolo[2,3-d]pyrimidin-4-yloxy)phenyl)-1,6-dimethyl-4-oxo-2-phenyl-1,4-dihydroquinoline-3-carboxamide], 0.078 µM. In turn, `Cc1c(C(=O)Nc2ccc(Oc3ccnc4[nH]ccc34)c(F)c2)c(=O)c2cc(Cl)ccc2n1C` [TL50090, N-(4-((1H-pyrrolo[2,3-b]pyridin-4-yl)oxy)-3-fluorophenyl)-6-chloro-1,2-dimethyl-4-oxo-1,4-dihydroquinoline-3-carboxamide] came in with an IC50 of 2.63 µM. To `Cc1c(C(=O)Nc2ccc(Oc3ncnc4[nH]cc(-c5ccccc5)c34)c(F)c2)c(=O)c2ccccc2n1C` [TL50054, N-(3-fluoro-4-((5-phenyl-7H-pyrrolo[2,3-d]pyrimidin-4-yl)oxy)phenyl)-1,2-dimethyl-4-oxo-1,4-dihydroquinoline-3-carboxamide] belongs greater than 10 µM; to `CCCn1c(C)c(C(=O)Nc2ccc(Oc3ncnc4[nH]cc(-c5ccccc5)c34)c(F)c2)c(=O)c2cc(C)ccc21` [TL4800104, N-(3-fluoro-4-(5-phenyl-7H-pyrrolo[2,3-d]pyrimidin-4-yloxy)phenyl)-2,6-dimethyl-4-oxo-1-propyl-1,4-dihydroquinoline-3-carboxamide], 0.533 µM; to `COc1cc2ncnc(Oc3ccc(NC(=O)c4cn(CCF)c5c(F)c(N6CCN(C)CC6)c(F)cc5c4=O)cc3F)c2cc1OC` [TL4830040, N-(4-(6,7-dimethoxyquinazolin-4-yloxy)-3-fluorophenyl)-6,8-difluoro-1-(2-fluoroethyl)-7-(4-methylpiperazin-1-yl)-4-oxo-1,4-dihydroquinoline-3-carboxamide], 0.224 µM. In turn, `CCc1cc2c(=O)c(C(=O)Nc3ccc(Oc4ncnc5cc(OC)c(OC)cc45)c(F)c3)c(C)n(C)c2cc1N1CCN(C)CC1` [TL4830071, N-(4-(6,7-dimethoxyquinazolin-4-yloxy)-3-fluorophenyl)-6-ethyl-1,2-dimethyl-7-(4-methylpiperazin-1-yl)-4-oxo-1,4-dihydroquinoline-3-carboxamide] had an IC50 of 0.0148 µM. In turn, `COc1cc2ncnc(Oc3ccc(NC(=O)c4cn5c6c(c(N7CCN(C)CC7)c(F)cc6c4=O)OC[C@@H]5C)cc3F)c2cc1OC` [GDL5000111, (S)—N-(4-((6,7-dimethoxyquinazolin-4-yl)oxy)-3-fluorophenyl)-9-fluoro-3-methyl-10-(4-methylpiperazin-1-yl)-7-oxo-3,7-dihydro-2H-[1,4]oxazino[2,3,4-ij]quinoline-6-carboxamide] gave an IC50 of 1.08 µM. With `O=C(Nc1ccc(Oc2ncnc3[nH]cc(-c4ccccc4)c23)c(F)c1)c1cn(C2CC2)c2cc(N3CCNCC3)c(F)cc2c1=O` [TL4800095, 1-cyclopropyl-6-fluoro-N-(3-fluoro-4-((5-phenyl-7H-pyrrolo[2,3-d]pyrimidin-4-yl)oxy)phenyl)-4-oxo-7-(piperazin-1-yl)-1,4-dihydroquinoline-3-carboxamide], the half-inhibitory concentration (IC50) is 0.11 µM. Regarding `Cc1c(C(=O)Nc2ccc(Oc3ncnc4[nH]cc(-c5ccccc5)c34)c(F)c2)c(=O)c2cc(Cl)ccc2n1C` [TL50053, 6-chloro-N-(3-fluoro-4-((5-phenyl-7H-pyrrolo[2,3-d]pyrimidin-4-yl)oxy)phenyl)-1,2-dimethyl-4-oxo-1,4-dihydroquinoline-3-carboxamide], the 50% inhibitory concentration (IC50) was determined as 1.89 µM. To `Cc1c(C(=O)Nc2ccc(Oc3ncnc4[nH]cc(-c5ccccc5)c34)c(F)c2)c(=O)c2cc3ccccc3cc2n1C` [TL50198, N-(3-fluoro-4-((5-phenyl-7H-pyrrolo[2,3-d]pyrimidin-4-yl)oxy)phenyl)-1,2-dimethyl-4-oxo-1,4-dihydrobenzo[g]quinoline-3-carboxamide] belongs greater than 10 µM. Molecule `Cc1c(C(=O)Nc2ccc(Oc3ccnc4[nH]nc(-c5ccccc5)c34)c(F)c2)c(=O)c2cc(Cl)ccc2n1C` [TL50025, 6-chloro-N-(3-fluoro-4-((3-phenyl-1H-pyrazolo[3,4-b]pyridin-4-yl)oxy)phenyl)-1,2-dimethyl-4-oxo-1,4-dihydroquinoline-3-carboxamide] showed an IC50 of 0.569 µM.

Source of the values: patent US10683278B2 (JINAN UNIVERSITY, priority 2015, dated 2020).
